# In patent publication US10131671B2, “Organic compounds” (Intra-Cellular Therapies, Inc., priority 2014, dated 2018):
# Tests used:
# [1] = Pharmacokinetic analysis in mice: plasma and brain levels after oral dose; assay type: in vivo, C57BL/6 mice; conditions: male, C57BL/6, mouse, 10 mg/kg, 10 mg/kg PO, Brain AUC(0-2h)/Plasma AUC(0-2h) or Brain Cmax/Plasma Cmax, read-out: ratio of brain/plasma concentration (B/P)
# Procedure: Animals: Male, C57BL/6 mice (Jackson Labs, 25-30 g in body weight) are provided by Jackson Laboratories. Up to five mice are housed per cage and are maintained under a 12 hour light/dark cycle with access to food and water ad libitum. All procedures for the handling and use of animals follow the guidelines of the Institutional Animal Care and Use Committee (IACUC) of Columbia University, in accordance with NIH guidelines. Eight week-old mice (N=3/dose level or treatment group) are used in the experiments.
# Experimental Treatment: Compounds: Selected Compounds of the Invention are evaluated in the present study. Formulation/Vehicle: 3% 1N HCl, 5% Labrasol and 92% of 5% TPGS in 0.05M Citrate buffer (CB, pH 4.0). The test compound(s) are prepared as solution in vehicle and are dosed in a volume of 8 ml/kg.
# Compound Preparation: Powdered stocks of the test compound(s) are measured and dissolved in 3% 1N HCl, 5% Labrasol and 92% of 5% TPGS in 0.05M Citrate buffer (CB, pH 4.0). Two or three layers of 3 mm glass beads are added to the bottom of the 10 ml glass tube to promote mixing. […]
# Treatment of Animals: Mice (N=3 mice/dose/time point) receive a 10 mg/kg oral (PO) dose of the test compound(s) at time 0. […] Plasma and brain tissue samples are processed and analyzed by the analytical group using LC-MS/MS methods, as described below. […]
# Each tube is vortexed, then centrifuged for 20 min at 15000 rpm using a Tomy benchtop centrifuge at 4° C. Standard is an internal standard used for LC-MS/MS quantitation. […]
# HPLC and Mass Spectrometric Analysis: Analysis to quantify the concentration of each compound in plasma and brain homogenate is carried out using reverse phase HPLC followed by mass spectrometric detection using the parameters listed:
# Each compound is detected and quantified using Multiple Reaction Monitoring (MRM) of positive electrospray mode with a Waters QuattroMicro™ mass spectrometry system.
# RESULTS: Plasma and Brain Analysis: All the test compound(s) tested could be detected and analyzed when spiked into control plasma. […]
# [2] = tested on: isoproterenol-induced cardiac hypertrophy; test: Isoproterenol induced cardiac hypertrophy mouse model; assay type: in vivo, 129S1/SvlmJ mice; conditions: for HW/TL Ratio (mean): isoproterenol 10 mg/kg s.c. days 4-9, heart weight/tibia length on day 10
# Procedure: The compound of Example 2 is tested in a mouse model where the mice are treated with isoproterenol. Such a model can be useful for extrapolating to diseases or disorders involving an enlargement of the heart or cardiac tissue, e.g., congestive heart disease. Animals: 129S1/SvlmJ mice, 20-40 grams, Jackson Laboratories (Bar Harbor, Me.). Test Compound of Example 2: Test compound of Example 2 is supplied as a powder. The test article dosing solutions are prepared on the day of administration by dissolving the test compound in the vehicle (0.9% sodium chloride for injection, U.S.P.) at concentration of 2.0 mg/mL stock/dosing solution. The compound are agitated with a vortex mixer and sonicated to ensure the compound is in solution. The 2.0 mg/mL solution is diluted with vehicle to create the 0.2 mg/mL and the 0.6 mg/mL dosing solutions. Dosing solutions are stored in a refrigerator between the daily doses and are allowed to return to room temperature before the evening dose. Test Compound Isoproterenol: Test compound isoproterenol is supplied by Sigma (St. Louis, Mo.) as a powder. The test article dosing solutions are prepared on the day of administration by dissolving the test compound in the vehicle (0.9% sodium chloride for injection, U.S.P.) at concentration of 2.0 mg/mL. The compound is agitated with a vortex mixer and sonicated to ensure the compound is in solution. [table] Mice in group 1 and 2 are dosed daily via subcutaneous administration. On days 7, 10 and 14, 2 animals from groups 1 and 2 are weighed and then euthanized via CO2 asphyxiation. Hearts are harvested and gently infused with ice cold saline until clear. The entire heart is weighed. The atria are removed and the left ventricle (with septum) is separated from the right ventricle. The ventricles are weighed separately. The left tibia is removed and separated from the soft tissue. Longitudinal measurement are obtained with a digital micrometer. Mice in groups 3-6 are dosed once/day with isoproterenol subcutaneously from Days 4-9 and twice/day with vehicle or test compound via intraperitoneal administration from Days 1 to 9. On Day 10 (based on the results from Groups 1 and 2) animals from each group are weighed and then euthanized via CO2 asphyxiation. Hearts are harvested and gently infused with ice cold krebs-henseleit buffer (Sigma 3753) until clear. The entire heart is weighed. The atria are removed and the left ventricle (with septum) is separated from the right ventricle. The ventricles are weighed separately. The ventricles are stored in ice cold krebs-henseleit buffer for approximately 15 minutes and then transferred to 10% buffered formalin at room temperature until possible shipment for possible future analysis. The left tibia is removed and separated from the soft tissue. Longitudinal measurement is obtained with a digital micrometer.
# TAC-induced hypertrophy = test: Transverse aortic constriction (TAC) mouse model of cardiac hypertrophy; assay type: in vivo, C59Bl/6 mice; conditions: for Terminal LV + S/TL Ratio (mean) (TAC ratio): day 1-28 post-surgery, left ventricle+septum weight/tibia length
# Procedure: Animals: C59Bl/6 mice, 20-40 grams, Charles River (Portage, Mich.).
# Test Compound of Example 2: Test compound of Example 2 is formulated. The test article dosing solutions are prepared by titrating the free base with 1 mole/mole dilute (0.02N) HCl and diluting the dissolved test compound in the vehicle (0.5% methylcellulose in distilled water) to a final concentration of 0.45 mg/mL and 1.5 mg/mL dosing solution. A supply of formulation for thirty days of dosing are prepared (day 1-6 for 1st surgical cohort).
# Reference Test Compound—Losartan potassium: Losartan is obtained by CorDynamics, and prepared on the day of administration by dissolving in the vehicle (0.5% methylcellulose in distilled water) at concentration of 4.5 mg/mL dosing solution. The compound is agitated with a vortex mixer and sonicated to ensure the compound is in solution.
# Transverse Aortic Constriction Surgery: Animals are anesthetized with isoflurane using a nose cone connected to a vaporizer that delivers 1-2% isoflurane driven by 100% oxygen. After initial anesthesia with isoflurane, mice receive 1 mg/kg Buprenex SR (1 mg/mL, s.c.) and 10 mg/kg of etomidate (2 mg/mL, i.p.). Animals are intubated for mechanical ventilation. The endotracheal tube is connected to a mechanical ventilator that provides positive-pressure ventilation with 1-2% isoflurane remainder oxygen, set to maintain ˜120 breaths/min with a tidal volume of ˜200 μL. Body temperature is monitored throughout the experiment.
# A sternotomy is performed from the manubrium through the second or third rib in order to expose the aorta in the thoracic cavity. The aorta is cleaned of surrounding tissue and the transverse aorta clamped with a titanium microclip, the diameter similar to a 27 G needle. The transverse aorta from mice in Group 1 is cleaned of surrounding tissue but not clamped. The incision is closed, endotracheal tube is removed and animal is allowed to recover.
# Mice are dosed twice daily with vehicle or the compound of Example 2 via oral administration with approximately 6 hours between each dose beginning at 1 day post-surgery. Mice are dosed once daily with losartan via oral administration. Body weights are taken after arrival, prior to surgery, prior to dosing on the first day of dosing and every third day of dosing for dose calculation purposes.
# On day 28, echocardiographic measurements are performed for all experimental groups. Animals are anesthetized with isoflurane using a nose cone connected to a vaporizer that delivers 1-2% isoflurane driven by 100% oxygen. Mice are placed in the dorsal decubitus position on a warming platform to maintain body temperature at 37±0.5° C. Heart rate is monitored throughout the experiment. Transthoracic two-dimensional, B-mode, M-mode and pulsed Doppler images are acquired with a high-resolution echocardiographic system (VeVo 770, Visual Sonics, Toronto, ON, Canada) equipped with a 30-MHz mechanical transducer.
# After echocardiographic measurements, animals are euthanized via CO2 asphyxiation. Hearts and lungs are harvested and gently infused with ice cold krebs-henseleit buffer (Sigma 3753) until clear. Lungs are weighed and the right and left lung are separated. The right and left lung are immediately frozen in liquid nitrogen and placed into separate tubes. The entire heart is weighed. The atria are removed and the left ventricle (with septum) is separated from the right ventricle. The ventricles are weighed separately before being divided into two pieces. Ventricle pieces are frozen in liquid nitrogen and placed into separate tubes. Liquid nitrogen samples are stored in a freezer set to maintain approximately −80° C. until shipped on dry ice to the Sponsor for possible future analysis.
# The left tibia is removed and separated from the soft tissue. Longitudinal measurement will be obtained with a digital micrometer. The dissected tibia is disposed of with the rest of the carcass.
compound,measurement,setting,value
"CN1C(=O)c2c(nn(Cc3ccc(C(F)(F)F)cc3)c2Nc2ccccc2)N2C1=N[C@@H]1CCC[C@@H]12 [(6aR,9aS)-3-(phenylamino)-5,6a,7,8,9,9a-hexahydro-5-methyl-2-(4-(trifluoromethyl)-benzyl)-cyclopent[4,5]imidazo[1,2-a]pyrazolo[4,3-e]pyrimidin-4(2H)-one, reference compound]",Kp,[1],4.5 to 4.8
"CN1C(=O)c2c(nn(Cc3ccncc3)c2Nc2ccc(F)cc2)N2CC(C)(C)N=C12 [Example 1, 3-((4-fluorophenyl)amino)-5,7,7-trimethyl-2-(pyridin-4-ylmethyl)-7,8-dihydro-2H-imidazo[1,2-a]pyrazolo[4,3-e]pyrimidin-4(5H)-one]",Kp,[1],≤ 0.1
"Cc1ncc(Cn2nc3c(c2Nc2ccc(F)cc2)C(=O)N(C)C2=NC(C)(C)CN23)cn1 [Example 2, 3-((4-fluorophenyl)amino)-5,7,7-trimethyl-2-((2-methylpyrimidin-5-yl)methyl)-7,8-dihydro-2H-imidazo[1,2-a]pyrazolo[4,3-e]pyrimidin-4(5H)-one]",reduction in the heart weight/tibia length (HW/TL) ratio compared to vehicle,[2]; 1 mg/kg,~8%
same,HW/TL Ratio (mean),[2]; 1 mg/kg twice/day days 1-9,8.49 mg/mm
same,decrease of (LV+RV)/TL ratio (left ventricle plus right ventricle weight/tibia length) compared to vehicle,[2]; 3 mg/kg,10%
same,prevention of cardiac hypertrophy,[2]; 3 mg/kg,significantly prevents cardiac hypertrophy
same,reduction in the heart weight/tibia length (HW/TL) ratio compared to vehicle,[2]; 3 mg/kg,~12.5%
same,HW/TL Ratio (mean),[2]; 3 mg/kg twice/day days 1-9,8.08 mg/mm
same,decrease of (LV+RV)/TL ratio (left ventricle plus right ventricle weight/tibia length) compared to vehicle,[2]; 10 mg/kg,10%
same,prevention of cardiac hypertrophy,[2]; 10 mg/kg,significantly prevents cardiac hypertrophy
same,reduction in the heart weight/tibia length (HW/TL) ratio compared to vehicle,[2]; 10 mg/kg,~12.5%
same,HW/TL Ratio (mean),[2]; 10 mg/kg twice/day days 1-9,8.1 mg/mm
same,effect on the development of isoproterenol-induced cardiac hypertrophy,[2]; up to 10 mg/kg,statistically significant effect
same,effect on cardiac hypertrophy induced by the TAC constriction,TAC-induced hypertrophy; 3 mg/kg,tendency to reverse the cardiac hypertrophy
same,Terminal LV + S/TL Ratio (mean) (TAC ratio),TAC-induced hypertrophy; 3 mg/kg oral twice/day,5.8 mg/mm
same,effect on cardiac hypertrophy induced by the TAC constriction,TAC-induced hypertrophy; 10 mg/kg,tendency to reverse the cardiac hypertrophy
same,Terminal LV + S/TL Ratio (mean) (TAC ratio),TAC-induced hypertrophy; 10 mg/kg oral twice/day,5.8 mg/mm
same,difference in TAC ratio between the sham group and the treated groups,TAC-induced hypertrophy; sham vs compound groups,not statistically significant
"CN1C(=O)c2c(nn(Cc3ccc(S(N)(=O)=O)cc3)c2Nc2ccc(F)cc2)N2CC(C)(C)N=C12 [Example 7, 4-((3-((4-fluorophenyl)amino)-5,7,7-trimethyl-4-oxo-4,5,7,8-tetrahydro-2H-imidazo[1,2-a]pyrazolo[4,3-e]pyrimidin-2-yl)methyl)benzenesulfonamide]",Kp,[1],< 0.05
"CCCCc1nc(Cl)c(CO)n1Cc1ccc(-c2ccccc2-c2nn[nH]n2)cc1 [Losartan, Losartan potassium, reference compound]",Terminal LV + S/TL Ratio (mean) (TAC ratio),TAC-induced hypertrophy; 40 mg/kg (as printed in the results table) oral once/day,6.2 mg/mm
same,difference in TAC ratio between the vehicle group and the treated group,TAC-induced hypertrophy; vehicle vs Losartan group,not statistically significant
